{"source": "patent US20260216204A1", "about": "“METHODS FOR TREATING LOWER RISK MYELODYSPLASTIC SYNDROME” (Constellation Pharmaceuticals, Inc., priority 2022, published 2026)", "key": {"[1]": {"system": "IL-10 release of primary MDS patient PBMCs stimulated with LPS", "experiment": "Cytokine release of LPS-stimulated primary MDS patient PBMCs (eight-point titration): IL-10", "format": "cell-based, human", "conditions": "5 μM to 8.2 nM, normalized to DMSO only, n=7-10 donors, FIG. 3", "description": "(§1) Primary MDS patient samples (cryopreserved peripheral blood mononuclear cells (PBMCs)) were purchased from Discovery Life Sciences. For sample selection, we chose patients with low blast count (ideally below 5%), excluded patients with multilineage dysplasia and (if available) checked blood parameters such as white blood cell count and disease staging notes in order to select patients that show LR-MDS characteristics. Freshly thawed PBMCs were seeded at 50 000 cells/well in a 96-well flat bottom plate. 0.001 μg/mL lipopolysaccharide (LPS-B5, Invivogen) were added to induce IL-6 production. […] After centrifugation, the supernatant of the cells was collected and IL-6 protein in the supernatant was quantified using Human IL-6 Kit (V-PLEX, Meso Scale Discovery). The assay plates were read on a Meso Sector S600. […] The half maximal inhibitory concentration (IC50) was calculated by logarithmic transformation of the compound concentrations and applying “log(inhibitor) vs. response—variable slope (four parameters)”—function. […] After centrifugation, the supernatant of the cells was collected and IFNγ, TNFα, IL-6, IL-8 or IL-10 protein in the supernatant was quantified using Proinflammatory Panel 1 Human Kit (IFNγ, TNFα, IL-6 and IL-10) or Human IL-8 Kit (both V-PLEX, Meso Scale Discovery). The assay plates were read on a Meso Sector S600. […]"}, "[2]": {"system": "IL-6 release of primary MDS patient PBMCs stimulated with LPS", "experiment": "Cytokine release of LPS-stimulated primary MDS patient PBMCs (eight-point titration): IL-6", "format": "cell-based, human", "conditions": "5 μM to 8.2 nM, normalized to DMSO only, n=7-10 donors, FIG. 3", "description": "as §1"}, "[3]": {"system": "CD34+ cells isolated from blood samples of healthy donors and MF patients", "conditions": "cited from earlier work"}, "[4]": {"system": "TNFα release of primary MDS patient PBMCs stimulated with LPS", "experiment": "Cytokine release of LPS-stimulated primary MDS patient PBMCs (eight-point titration): TNFα", "format": "cell-based, human", "conditions": "5 μM to 8.2 nM, normalized to DMSO only, n=7-10 donors, FIG. 3", "description": "as §1"}, "[5]": {"system": "IL-8 release of primary MDS patient PBMCs stimulated with LPS", "experiment": "Cytokine release of LPS-stimulated primary MDS patient PBMCs (eight-point titration): IL-8", "format": "cell-based, human", "conditions": "5 μM to 8.2 nM, normalized to DMSO only, n=7-10 donors, FIG. 3", "description": "as §1"}, "[6]": {"system": "erythrocyte progenitors in bone marrow biopsy", "conditions": "semi-quantitative CD71 IHC, baseline vs Week 24, 22 out of 37; cited from earlier work"}, "[7]": {"system": "transfusion dependent MF patients", "conditions": "Arm 2, pelabresib in addition to ruxolitinib; cited from earlier work"}, "[8]": {"system": "CD34+ stem cells derived from LR-MDS donors", "experiment": "Erythropoiesis of hematopoietic stem cells (CD34+) isolated from MDS patient bone marrow, flow cytometry", "format": "cell-based, human", "conditions": "pelabresib monohydrate 500 nM to 31.25 nM tested; FIG. 2 at 250 nM with erythroid expansion supplement, day 7, n=2 donors", "excerpt": "Primary MDS patient samples (cryopreserved bone marrow mononuclear cells (BMMCs)) were purchased from Discovery Life Sciences. For sample selection, we chose patients with low blast count (ideally below 5%), excluded patients with multilineage dysplasia and (if available) checked blood parameters such as white blood cell count and disease staging notes in order to select patients that show LR-MDS characteristics. Hematopoietic stem cells (CD34+) were isolated with EasySep Human CD34+ selection Kit II (StemCell Technologies) using freshly thawed cells. Cells were seeded at 1000 cells/well (for erythropoiesis) or 2500 cells/well (for CC100 differentiation mix) in a 96-flat-well plate. Differentiation cocktails StemSpan™ Erythroid Expansion Supplement (for Erythropoieses) or StemSpan™ CC100 (differentiation mix) were added according to the manufacturer's instructions. A 5-point titration series of pelabresib monohydrate with concentrations ranging from 500 nM to 31.25 nM was tested in duplicate. “DMSO only” treated wells served as control and were also used to prepare flow cytometry controls (such as FMOs). […] On day 7 cells were analysed via flow cytometry. […] Among the viable cells the percentage of CD34+CD71+ (megakaryocyte-erythroid progenitors (MEP)) and percentage of CD34−CD71+ (pro-erythroblasts/erythroblasts (pro-EB/EB)) was determined and depicted in GraphPad Prism 8 per donor."}, "advanced MF patients": {"system": "advanced MF patients", "conditions": "cited from earlier work"}, "[9]": {"system": "inflammatory cytokine regulated by the NF-κB pathway", "conditions": "lymphoma and MF patients; cited from earlier work"}, "[10]": {"system": "IFNγ release of primary MDS patient PBMCs stimulated with LPS", "experiment": "Cytokine release of LPS-stimulated primary MDS patient PBMCs (eight-point titration): IFNγ", "format": "cell-based, human", "conditions": "5 μM to 8.2 nM, normalized to DMSO only, n=7-10 donors, FIG. 3", "description": "as §1"}, "[11]": {"system": "IL-6 release of primary MDS patient PBMCs stimulated with LPS", "experiment": "IL-6 release of LPS-stimulated primary MDS patient PBMCs, electrochemiluminescence immunoassay (nine-point titration)", "format": "cell-based, human", "conditions": "n=2 donors, FIG. 1", "description": "This study was performed to evaluate the anti-inflammatory activity of pelabresib on MDS patient cells from different donors. The NF-kB pathway is central in regulating cytokines such as TNF-α, IL-6, and IL-8 which are elevated in MDS patients and play role in the pathogenesis of myelodysplastic syndromes (Ref: e.g. doi: 10.1097/MD.0000000000015844). Primary MDS patient samples (cryopreserved peripheral blood mononuclear cells (PBMCs)) were purchased from Discovery Life Sciences. For sample selection, we chose patients with low blast count (ideally below 5%), excluded patients with multilineage dysplasia and (if available) checked blood parameters such as white blood cell count and disease staging notes in order to select patients that show LR-MDS characteristics. Freshly thawed PBMCs were seeded at 50 000 cells/well in a 96-well flat bottom plate. 0.001 μg/mL lipopolysaccharide (LPS-B5, Invivogen) were added to induce IL-6 production. […] After centrifugation, the supernatant of the cells was collected and IL-6 protein in the supernatant was quantified using Human IL-6 Kit (V-PLEX, Meso Scale Discovery). The assay plates were read on a Meso Sector S600. […] The half maximal inhibitory concentration (IC50) was calculated by logarithmic transformation of the compound concentrations and applying “log(inhibitor) vs. response—variable slope (four parameters)”—function."}}}
{"smiles": "Cc1noc2c1-c1ccccc1C(c1ccc(Cl)cc1)=N[C@H]2CC(N)=O", "note": "[pelabresib, 2-((4S)-6-(4-chlorophenyl)-1-methyl-4H-benzo[c]isoxazolo[4,5-e]azepin-4-yl)acetamide]", "values": [{"measurement": "release of IL-10", "setting": "[1]", "value": "suppressed release"}, {"measurement": "release of IL-6", "setting": "[2]", "value": "suppressed release"}, {"measurement": "erythrocyte maturation", "setting": "[3]; CD34+ cells from healthy donors and MF patients, cytokine cocktail", "value": "promotes erythrocyte maturation"}, {"measurement": "suppressive effects of ruxolitinib on erythroid differentiation", "setting": "[3]; in the presence of ruxolitinib, dose-dependent", "value": "rescued the suppressive effects"}, {"measurement": "release of TNFα", "setting": "[4]", "value": "suppressed release"}, {"measurement": "release of IL-8", "setting": "[5]", "value": "suppressed release"}, {"measurement": "patients with an increase in erythrocyte progenitors", "setting": "[6]", "value": 59, "unit": "%"}, {"measurement": "median duration of RBC-TI", "setting": "[7]", "value": 39, "unit": "weeks"}, {"measurement": "transfusion dependent MF patients who achieved RBC-TI ≥12 weeks", "setting": "[7]", "value": 36, "unit": "%"}, {"measurement": "differentiation of CD34+ stem cells towards erythropoiesis", "setting": "[8]", "value": "enhanced the differentiation"}, {"measurement": "median duration of RBC-TI", "setting": "advanced MF patients; Arm 1, monotherapy", "value": 44, "unit": "weeks"}, {"measurement": "transfusion dependent relapsed/refractory MF patients who achieved RBC-TI ≥12 weeks", "setting": "advanced MF patients; Arm 1, monotherapy", "value": 21, "unit": "%"}, {"measurement": "patients who achieved ≥1.5 g/dL increase in Hgb levels without transfusion", "setting": "advanced MF patients; monotherapy, 11 out of 19", "value": 57.9, "unit": "%"}, {"measurement": "levels of inflammatory cytokine regulated by the NF-κB pathway", "setting": "[9]", "value": "can decrease the levels"}, {"measurement": "release of IFNγ", "setting": "[10]", "value": "suppressed release"}, {"measurement": "IL-6 release in donor PBMCs", "setting": "[11]; 5 μM to 3.3 nM, dose dependent", "value": "suppressed IL-6 release"}, {"measurement": "IC50", "setting": "[11]; Homo sapiens, PBMC, 0.001 μg/mL LPS, approx. 18 hours, normalized to DMSO only control", "value": 0.248, "unit": "µM"}]}
